# Test results reported in patent US12643892B2, “Pyridazinone compounds for the treatment of neuromuscular diseases” (Edgewise Therapeutics, Inc., priority 2020, dated 2026).
# Target: Skeletal Myofibril ATPase (Rabbit Psoas myofibrils)
# Experiment: Skeletal Myofibril ATPase Assay
# Format: biochemical
# Settings: PK/LDH-coupled NADH absorbance at 340 nm
# Experimental: Overview: Myosin ATPase activity was assessed by using a coupled reaction system, in which ADP generated by the myosin ATPase function was coupled to the disappearance of NADH through the pyruvate kinase/lactate dehydrogenase (PK-LDH) system. Myosin ATPase activity produces ADP, which was used as a substrate for PK to produce pyruvate and regenerate ATP. The pyruvate was then used as a substrate by LDH to oxidize NADH to NAD+. The rate of the reaction was monitored through the time-dependent disappearance of NADH using absorbance at 340 nm. Inhibition of ATPase activity by the assayed compounds was indicated by a reduced rate of NADH loss, relative to vehicle-treated controls, over the experimental time window. To assess the selectivity of the assayed compounds for skeletal myofibrils, the compounds were counter-screened in cardiac myofibrils.
# Materials: The following stock solutions and reagents were used in the Skeletal Myofibril ATPase Assay:
# Stock Solutions of pCa buffer. Combine PIPES, CaCl2, and EGTA solutions with 70 mL of water. Adjust pH to 7.0 and bring final volume to 100 mL.
# Buffer A & Buffer B. Buffers were stored on ice until use.
# Skeletal Myofibril ATPase Assay Procedure: BSA, ATP, NADH, PEP, and DTT solutions were thawed at room temperature, then transferred to ice. Pellet-frozen myofibrils (approximately twice the required volume) were transferred into a sufficiently large tube and capped. Myofibrils were thawed by rolling in a water bath for approximately 15 min at room temperature and cooled on ice. Buffers A and B were prepared by adjusting volumes as necessary for required number of wells and stored on ice. 0.5 μL of the compounds to be assayed were added into wells of a 384-well plate. Buffers A and B were mixed by inversion immediately prior to use, then 25 μL of each was dispensed using a Multidrop dispenser (Buffer A first, then Buffer B). The absorbance within the wells was measured at 340 nm, using a kinetic protocol in which the wells are read every 1.5-2 min for 1 h. The reaction rate was qualitatively assessed by subtracting the minimum absorbance value from the maximum value for each well, using either the SoftMax Pro plate reader software or a spreadsheet program such as Excel. Using GraphPad Prism 8.0, the data was normalized, with 100% activity defined as the absorbance change in the 1% DMSO vehicle wells and 0% assigned to no change in absorbance over the course of the experiment. The normalized data were fit to a variable-slope four-parameter logistic model, constraining the bottom to be 0 or greater. Compounds of Table 1 to 3 were tested and results of the assay appear in Table 4 herein. A=IC50 is less than or equal to 10 μM; B=IC50 is greater than 10 μM and less than 100 μM; C=IC50 is greater than 100 μM.
row,Compound,IC50 [µM]
1,"O=c1ccc(-c2nc(-c3cccnc3)no2)nn1Cc1ccccc1 [Compound 67, 2-benzyl-6-(3-(pyridin-3-yl)-1,2,4-oxadiazol-5-yl)pyridazin-3(2H)-one]",10 to 100
2,"Cc1cccc(-c2noc(-c3ccc(=O)n(Cc4ccc(C(F)(F)F)nc4)c3)n2)c1 [Compound 114, 5-(3-(m-tolyl)-1,2,4-oxadiazol-5-yl)-l-((6-(trifluoromethyl)pyridin-3-yl)methyl)pyridin-2(1H)-one]",> 120
3,"Cc1ccc(-c2ccc(=O)n(CC(=O)N(C)c3ccccc3)n2)s1 [Compound 38, N-methyl-2-(3-(5-methylthiophen-2-yl)-6-oxopyridazin-1(6H)-yl)-N -phenylacetamide]",10 to 100
4,"CCCn1nc(-c2nc(COc3ccccc3)no2)ccc1=O [Compound 77, 6-(3-(phenoxymethyl)-1,2,4-oxadiazol-5-yl)-2-propylpyridazin-3(2H)-one]",10 to 100
5,"Cc1cc(Cn2nc(-c3nc(-c4cccc(Cl)c4)no3)ccc2=O)on1 [Compound 63, 6-(3-(3-chlorophenyl)-1,2,4-oxadiazol-5-yl)-2-((3-methylisoxazol-5-yl)methyl)pyridazin-3(2H)-one]",≤ 10
6,"O=c1ccc(-c2nc(-c3cccc(Cl)c3)no2)cn1Cc1cncc(F)c1 [Compound 86, 5-(3-(3-chlorophenyl)-1,2,4-oxadiazol-5-yl)-1-((5-fluoropyridin-3-yl)methyl)pyridin-2(1H)-one]",≤ 10
7,"COc1ccccc1NC(=O)Cn1nc(-c2cccs2)ccc1=O [Compound 40, N-(2-methoxypheny1)-2-(6-oxo-3-(thiophen-2-yl)pyridazin-1(6H)-yl)acetamide]",10 to 100
8,"O=c1ccc(-c2nc(-c3ccccc3Cl)no2)cn1Cc1noc(C2CC2)n1 [Compound 113, 5-(3-(2-chlorophenyl)-1,2,4-oxadiazol-5-yl)-1-((5-cyclopropyl-1,2,4-oxadiazol-3-yl)methyl)pyridin-2(lH)-one]",> 120
9,"Cn1cc(-c2ccc(=O)n(CC(=O)NCc3ccccc3Cl)n2)cn1 [Compound 54, N-(2-chlorobenzyl)-2-(3-(1-methyl-1H-pyrazol-4-yl)-6-oxopyridazin-1(6H)-yl)acetamide]",10 to 100
10,"COc1ncccc1Cn1cc(-c2nc(-c3cccc(C)c3)no2)ccc1=O [Compound 121, 1-((2-methoxypyridin-3-yl)methyl)-5-(3-(m-tolyl)-1,2,4-oxadiazol-5-yl)pyridin-2(1H)-one]",> 120
11,"O=C(Cn1nc(-c2cccs2)ccc1=O)Nc1ccccc1F [Compound 41, N-(2-fluorophenyl)-2-(6-oxo-3-(thiophen-2-yl)pyridazin-1(6H)-yl)acetamide]",10 to 100
12,"CCNC(=O)Cn1nc(-c2nc(-c3cccc(C(F)(F)F)c3)no2)ccc1=O [Compound 11, N-ethyl-2-(6-oxo-3-(3-(3-(trifluoromethyl)phenyl)-1,2,4-oxadiazol-5-yl)pyridazin-1(6H)-yl)acetamide]",≤ 10
13,"O=C(Cn1nc(-c2cccs2)ccc1=O)Nc1ccc2c(c1)OCCO2 [Compound 46, N-(2,3-dihydrobenzo[b][1,4]dioxin-6-yl)-2-(6-oxo-3-(thiophen-2-yl)pyridazin-1(6H)-yl)acetamide]",> 100
14,"Cc1cccc(-c2noc(-c3ccc(=O)n(Cc4ccc(C#N)nc4)c3)n2)c1 [Compound 103, 5-((2-oxo-5-(3-(m-tolyl)-1,2,4-oxadiazol-5-yl)pyridin-1(2H)-yl)methyl)picolinonitrile]",≤ 10
15,"Cc1cncc(Cn2cc(-c3nc(-c4cccc(C)c4)no3)ccc2=O)c1 [Compound 95, 1-((5-methylpyridin-3-yl)methyl)-5-(3-(m-tolyl)-1,2,4-oxadiazol-5-yl)pyridin-2(1H)-one]",≤ 10
16,"O=C(Cn1nc(-c2nnc(-c3cccc(Cl)c3)s2)ccc1=O)NC1CCC1 [Compound 23, 2-(3-(5-(3-chlorophenyl)-1,3,4-thiadiazol-2-yl)-6-oxopyridazin-1(6H)-yl)-N-cyclobutylacetamide]",≤ 10
17,"O=c1ccc(-c2nc(-c3cccc(F)c3)no2)cn1Cc1cccnc1 [Compound 102, 5-(3-(3-fluorophenyl)-1,2,4-oxadiazol-5-yl)-1-(pyridin-3-ylmethyl)pyridin-2(1H)-one]",≤ 10
18,"O=c1ccc(-c2nc(-c3ccc(Cl)cc3)no2)cn1Cc1cccnc1 [Compound 125, 5-(3-(4-chlorophenyl)-1,2,4-oxadiazol-5-yl)-1-(pyridin-3-ylmethyl)pyridin-2(1H)-one]",> 120

row,Compound,IC50 [µM]
1,"Cc1noc(-c2ccc(=O)n(Cc3ccccc3F)n2)n1 [Compound 70, 2-(2-fluorobenzyl)-6-(3-methyl-1,2,4-oxadiazol-5-yl)pyridazin-3(2H)-one]",10 to 100
2,"CCNC(=O)Cn1nc(-c2nc(-c3cccc(OC(F)F)c3)no2)ccc1=O [Compound 7, 2-(3-(3-(3-(difluoromethoxy)phenyl)-1,2,4-oxadiazol-5-yl)-6-oxopyridazin-1(6H)-yl)-N-ethylacetamide]",≤ 10
3,"O=c1ccc(-c2cccs2)nn1Cc1ccccc1F [Compound 58, 2-(2-fluorobenzyl)-6-(thiophen-2-yl)pyridazin-3(2H)-one]",> 100
4,"CCNC(=O)Cn1nc(-c2nc(-c3cccnc3)no2)ccc1=O [Compound 13, N-ethyl-2-(6-oxo-3-(3-(pyridin-3-yl)-1,2,4-oxadiazol-5-yl)pyridazin-1(6H)-yl)acetamide]",10 to 100
5,"CCCNC(=O)Cn1nc(-c2nc(-c3cccnc3)no2)ccc1=O [Compound 50, 2-(6-oxo-3-(3-(pyridin-3-yl)-1,2,4-oxadiazol-5-yl)pyridazin-1(6H)-yl)-N-propylacetamide]",10 to 100
6,"CCNC(=O)Cn1nc(-c2nnc(C34CC(C3)C4)s2)ccc1=O [Compound 32, 2-(3-(5-(bicyclo[1.1.1]pentan-1-yl)-1,3,4-thiadiazol-2-yl)-6-oxopyridazin-1(6H)-yl)-N-ethylacetamide]",≤ 10
7,"O=C(Cn1nc(-c2nnc(-c3cc(Cl)ccc3Cl)s2)ccc1=O)NC1CCC1 [Compound 18, N-cyclobutyl-2-(3-(5-(2,5-dichlorophenyl)-1,3,4-thiadiazol-2-yl)-6-oxopyridazin-1(6H)-yl)acetamide]",≤ 10
8,"CCNC(=O)Cn1nc(-c2nnc(-c3cccc(Cl)c3)s2)ccc1=O [Compound 24, 2-(3-(5-(3-chlorophenyl)-1,3,4-thiadiazol-2-yl)-6-oxopyridazin-1(6H)-yl)-N-ethylacetamide]",≤ 10
9,"O=c1ccc(-c2nc(-c3cccnc3)no2)nn1Cc1ccccc1F [Compound 68, 2-(2-fluorobenzyl)-6-(3-(pyridin-3-yl)-1,2,4-oxadiazol-5-yl)pyridazin-3(2H)-one]",10 to 100
10,"CCCNC(=O)Cn1nc(-c2nc(-c3ccc(Cl)cc3)no2)ccc1=O [Compound 51, 2-(3-(3-(4-chlorophenyl)-1,2,4-oxadiazol-5-yl)-6-oxopyridazin-1(6H)-yl)-N-propylacetamide]",≤ 10
11,"CCNC(=O)Cn1nc(-c2nc(-c3cccc(Cl)c3)co2)ccc1=O [Compound 30, 2-(3-(4-(3-chlorophenyl)oxazol-2-yl)-6-oxopyridazin-1(6H)-yl)-N-ethylacetamide]",≤ 10
12,"O=C(Cn1nc(-c2cccs2)ccc1=O)Nc1ccccc1Cl [Compound 37, N-(2-chlorophenyl)-2-(6-oxo-3-(thiophen-2-yl)pyridazin-1(6H)-yl)acetamide]",10 to 100
13,"O=c1ccc(-c2nc(-c3ccc(Cl)cc3)no2)cn1Cc1ccc(Cl)cc1 [Compound 122, 1-(4-chlorobenzyl)-5-(3-(4-chlorophenyl)-1,2,4-oxadiazol-5-yl)pyridin-2(1H)-one]",> 120
14,"O=c1ccc(-c2nc(-c3cncc(Cl)c3)no2)nn1Cc1cncc(F)c1 [Compound 65, 6-(3-(5-chloropyridin-3-yl)-1,2,4-oxadiazol-5-yl)-2-((5-fluoropyridin-3-yl)methyl)pyridazin-3(2H)-one]",≤ 10
15,"Cc1cccc(-c2noc(-c3ccc(=O)n(Cc4cccnc4)c3)n2)c1 [Compound 109, 1-(pyridin-3-ylmethyl)-5-(3-(m-tolyl)-1,2,4-oxadiazol-5-yl)pyridin-2(1H)-one]",10 to 100
16,"Cc1ccc(-c2ccc(=O)n(CC(=O)NC(C)C)n2)s1 [Compound 33, N-isopropyl-2-(3-(5-methylthiophen-2-yl)-6-oxopyridazin-1(6H)-yl)acetamide]",≤ 10
17,"CCNC(=O)Cn1nc(-c2nc(-c3cccc(Cl)c3)cs2)ccc1=O [Compound 81, 2-(3-(4-(3-chlorophenyl)thiazol-2-yl)-6-oxopyridazin-1(6H)-yl)-N-ethylacetamide]",> 100
